pEC50: −log10 of the molar value.
How the values were obtained:
TRAP1 enzyme = target: T1, TRAP1 enzyme (Homo sapiens, UniProt Q12931); test: ADP Glo assay (ATPase activity of TRAP1); assay type: biochemical
T1 sequence (Q12931 60-704): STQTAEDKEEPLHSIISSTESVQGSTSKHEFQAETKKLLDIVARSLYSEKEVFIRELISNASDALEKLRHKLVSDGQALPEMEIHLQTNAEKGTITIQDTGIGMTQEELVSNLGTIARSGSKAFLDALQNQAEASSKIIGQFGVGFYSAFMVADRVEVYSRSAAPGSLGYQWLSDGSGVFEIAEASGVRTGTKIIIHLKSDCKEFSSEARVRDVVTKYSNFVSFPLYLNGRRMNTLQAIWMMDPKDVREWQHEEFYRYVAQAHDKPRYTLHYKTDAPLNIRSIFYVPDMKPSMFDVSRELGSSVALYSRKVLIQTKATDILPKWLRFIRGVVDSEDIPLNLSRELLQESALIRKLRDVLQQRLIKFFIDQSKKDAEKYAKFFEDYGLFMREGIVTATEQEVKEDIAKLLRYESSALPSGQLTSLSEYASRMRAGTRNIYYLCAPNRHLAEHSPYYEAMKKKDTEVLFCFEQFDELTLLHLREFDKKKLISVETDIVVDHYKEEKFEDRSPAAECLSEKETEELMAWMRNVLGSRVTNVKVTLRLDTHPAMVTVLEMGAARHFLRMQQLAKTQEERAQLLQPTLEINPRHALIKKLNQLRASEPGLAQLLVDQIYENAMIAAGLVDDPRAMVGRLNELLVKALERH
In short: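 150 nM TRAP1 preincubated 30 min at 37 °C with compound (0.79–100 µM) in 25 mM Pipes pH 7.5, 40 mM KCl, 0.05 mM MgCl2; reaction started with 20 µM ATP, 60 min at 37 °C. ADP quantified by ADP-Glo luminescence against an ATP/ADP standard curve; Emax and EC50 from sigmoidal fits of activation.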

[1] = system: primary rat dopaminergic neurons; test: ROS production in primary rat dopaminergic TH-positive neurons after 6-OHDA injury; assay type: cell-based; settings: after injury with 6-OHDA (20 µM, 4 h); FIG. 1
Experimental: Rat dopaminergic neurons were cultured as described by Visanji et al., 2008. Briefly, pregnant female rat of 15 days of gestation are sacrificed using a deep anesthesia with CO2 chamber and a cervical dislocation. The midbrains obtained from 15-day-old rat embryos are dissected under a microscope. The embryonic midbrains are removed and placed in ice-cold medium of Leibovitz (L15) containing 2% of Penicillin- Streptomycin (PS) and 1% of bovine serum albumin (BSA). The ventral portion of the mesencephalic flexure, a region of the developing brain rich in dopaminergic neurons, is used for the cell preparations.
The midbrains are dissociated by trypsinisation for 20 min at 37° C. (solution at a final concentration of 0.05% trypsin and 0.02% EDTA). The reaction is stopped by the addition of Dulbecco’s modified Eagle’s medium (DMEM) containing DNAase I grade II (0.5 mg/mL) and 10% of foetal calf serum (FCS). Cells are then mechanically dissociated by 3 passages through a 10 mL pipette. Cells are then centrifuged at 180 x g for 10 min at +4° C. on a layer of BSA (3.5%) in L15 medium. […] Viable cells are counted in a Neubauer cytometer using the trypan blue exclusion test. […] Six wells per condition are assessed. […]

## O=C(Nc1ccc2c(c1)S(=O)(=O)N(c1ccc(Br)cc1)CCO2)c1cnc(-c2ccccc2)[nH]1 [Compound 1331, N-(2-(4-bromophenyl)-1,1-dioxido-3,4-dihydro-2H-benzo[b][1,4,5]oxathiazepin-8-yl)-2-phenyl-1H-imidazole-5-carboxamide]
TRAP1 enzyme; 150 nM Trap1, 20 µM ATP, concentration for half maximal activation, read-out: ADP GLO DRC: GeoMean EC50
  pEC50: > 4.70
TRAP1 enzyme; maximal percent activation, read-out: ADP GLO DRC: Mean Emax
  Emax: 150 to 200%
[1]
  ROS production: reduction in ROS

— patent US20230218632A1, “CYCLIC SULFONAMIDE DERIVATIVES AS TRAP1 MODULATORS AND USES THEREOF” (Amathus Therapeutics, Inc., priority 2020, published 2023)
